Test results taken from patent US9073855B2, “BCL-2 selective apoptosis-inducing agents for the treatment of cancer and immune diseases” (AbbVie Inc., priority 2008, dated 2015).

What was measured:
GST-Bcl-XL = GST-Bcl-XL (Homo sapiens, UniProt Q07817); test: TR-FRET binding assay, GST-Bcl-XL with F-Bak peptide probe; settings: TR-FRET Binding Affinity, GST-Bcl-XL, F-Bak peptide probe
Procedure, shortened: (§1)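 Competitive TR-FRET: GST-fusion protein, fluorescent Bak peptide probe and Tb-labelled anti-GST antibody incubated with compound dilution series (starting 50 μM as 2× stock, 10% DMSO) for 3 h at RT. Excitation 340/35 nm; Ki derived via Wang's exact competitive-binding equation.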

GST-Bcl-2 = GST-Bcl-2 (Homo sapiens, UniProt P10415); test: TR-FRET binding assay, GST-Bcl-2 with F-Bak peptide probe; settings: TR-FRET Binding Affinity, GST-Bcl-2, F-Bak peptide probe
Chain of GST-Bcl-2 (P10415 whole entry): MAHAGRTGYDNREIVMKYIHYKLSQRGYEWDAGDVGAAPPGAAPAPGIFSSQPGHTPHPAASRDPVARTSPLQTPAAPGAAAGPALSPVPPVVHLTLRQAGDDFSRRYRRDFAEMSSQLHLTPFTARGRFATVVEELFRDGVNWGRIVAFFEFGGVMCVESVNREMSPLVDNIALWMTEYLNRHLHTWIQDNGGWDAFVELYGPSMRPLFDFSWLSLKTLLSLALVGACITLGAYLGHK
Procedure, shortened: as §1

Canine platelets = test: Platelet cell viability assay (platelet-rich plasma, Cell Titer Glo); format: cell-based; settings: Canis lupus familiaris, 5 h, isolated canine platelets ex vivo, five hours at 37° C.
Description: After the incubation, platelets were equilibrated to room temperature for 20 minutes and then an equal volume of Cell Titer Glo reagent (Promega Corporation) was added. Samples were mixed for two minutes and then allowed to equilibrate for an additional 10 minutes at room temperature. The luminescence generated from the samples was quantitated using an LJL Analyst plate reader.
The effect of compounds on platelet survival can be directly evaluated ex vivo by examining the viability of isolated canine platelets in the presence of various concentrations of compound.

FL5.12/Bcl-2 cells = test: FL5.12/Bcl-2 cell viability assay under IL-3 withdrawal (CellTitre Glo); format: cell-based, murine; settings: Mus musculus, IL-3 withdrawn 48 hrs, then 24 hrs with compound
Procedure, shortened: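 Murine IL-3-dependent FL5.12 cells stably overexpressing Bcl-2 were deprived of IL-3 (WEHI-3B conditioned medium) for 48 h, then exposed to various compound concentrations for 24 h at 37 °C. Viability read by CellTiter-Glo luminescence.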

Chain of GST-Bcl-XL (Q07817 whole entry, the tested form may be a part): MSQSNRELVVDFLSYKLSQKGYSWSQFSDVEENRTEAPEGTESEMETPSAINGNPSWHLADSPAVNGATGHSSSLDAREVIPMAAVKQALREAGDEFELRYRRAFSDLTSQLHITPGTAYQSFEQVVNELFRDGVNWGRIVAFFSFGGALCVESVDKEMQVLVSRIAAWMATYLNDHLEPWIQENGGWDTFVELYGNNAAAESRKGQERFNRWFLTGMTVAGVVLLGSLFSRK

Row | SMILES | Ki (GST-Bcl-XL) | Ki (GST-Bcl-2) | EC50 (Canine platelets) | EC50 (FL5.12/Bcl-2 cells)
1 | CN1CCN(CCCNc2ccc(S(=O)(=O)NC(=O)c3ccc(N4CCN(CC5=C(c6ccc(Cl)cc6)CC(C)(C)CC5)CC4)cc3Oc3cccc4[nH]ccc34)cc2[N+](=O)[O-])CC1 [Example 99, 4-(4-{[2-(4-chlorophenyl)-4,4-dimethylcyclohex-1-en-1-yl]methyl}piperazin-1-yl)-2-(1H-indol-4-yloxy)-N-[(4-{[3-(4-methylpiperazin-1-yl)propyl]amino}-3-nitrophenyl)sulfonyl]benzamide] | 5.53 nM | 0.04 nM | 21700 nM | 9 nM
2 | CC1(C)CCC(CN2CCN(c3ccc(C(=O)NS(=O)(=O)c4ccc(NCCCN5CCCC5)c([N+](=O)[O-])c4)c(Oc4ccc5[nH]ccc5c4)c3)CC2)=C(c2ccc(Cl)cc2)C1 [Example 97, 4-(4-{[2-(4-chlorophenyl)-4,4-dimethylcyclohex-1-en-1-yl]methyl}piperazin-1-yl)-2-(1H-indol-5-yloxy)-N-({3-nitro-4-[(3-pyrrolidin-1-ylpropyl)amino]phenyl}sulfonyl)benzamide] | 2.61 nM | 0.027 nM | 14100 nM | 13 nM
3 | O=C(NS(=O)(=O)c1ccc(NCC2CCOCC2)c([N+](=O)[O-])c1)c1ccc(N2CCN(Cc3ccccc3-c3ccc(Cl)cc3)CC2)cc1Oc1ccc2[nH]ccc2c1 [Example 40, 4-{4-[(4′-chloro-1,1′-biphenyl-2-yl)methyl]piperazin-1-yl}-2-(1H-indol-5-yloxy)-N-({3-nitro-4-[(tetrahydro-2H-pyran-4-ylmethyl)amino]phenyl}sulfonyl)benzamide] | > 660 nM | 0.534 nM | > 50000 nM | 165 nM
4 | CN(C)CCOc1cccc(-c2ccc(Cl)cc2)c1CN1CCN(c2ccc(C(=O)NS(=O)(=O)c3ccc(NCCCN4CCCC4)c([N+](=O)[O-])c3)c(Oc3ccccc3)c2)CC1 [Example 123, 4-[4-({4′-chloro-3-[2-(dimethylamino)ethoxy]-1,1′-biphenyl-2-yl}methyl)piperazin-1-yl]-N-({3-nitro-4-[(3-pyrrolidin-1-ylpropyl)amino]phenyl}sulfonyl)-2-phenoxybenzamide] | 1.37 nM | 0.015 nM | 2810 nM | 87 nM
5 | O=C(NS(=O)(=O)c1ccc(NCCCN2CCCC2)c([N+](=O)[O-])c1)c1ccc(N2CCN(Cc3cc(OCCN4CCOCC4)ccc3-c3ccc(Cl)cc3)CC2)cc1Oc1ccc2[nH]ccc2c1 [Example 136, 4-(4-{[4′-chloro-4-(2-morpholin-4-ylethoxy)-1,1′-biphenyl-2-yl]methyl}piperazin-1-yl)-2-(1H-indol-5-yloxy)-N-({3-nitro-4-[(3-pyrrolidin-1-ylpropyl)amino]phenyl}sulfonyl)benzamide] | 61.9 nM | 0.259 nM | > 50000 nM | 190 nM
6 | CN(C)CCOc1ccc(-c2ccc(Cl)cc2)c(CN2CCN(c3ccc(C(=O)NS(=O)(=O)c4ccc(NCCCN5CCCC5)c([N+](=O)[O-])c4)c(Oc4ccccc4)c3)CC2)c1 [Example 121, 4-[4-({4′-chloro-4-[2-(dimethylamino)ethoxy]-1,1′-biphenyl-2-yl}methyl)piperazin-1-yl]-N-({3-nitro-4-[(3-pyrrolidin-1-ylpropyl)amino]phenyl}sulfonyl)-2-phenoxybenzamide] | 0.388 nM | 0.001 nM | 309 nM | 38 nM
7 | CN(C)CCCNc1ccc(S(=O)(=O)NC(=O)c2ccc(N3CCN(Cc4ccccc4-c4ccc(Cl)cc4)CC3)cc2Oc2cccc3[nH]ccc23)cc1[N+](=O)[O-] [Example 46, 4-{4-[(4′-chloro-1,1′-biphenyl-2-yl)methyl]piperazin-1-yl}-N-[(4-{[3-(dimethylamino)propyl]amino}-3-nitrophenyl)sulfonyl]-2-(1H-indol-4-yloxy)benzamide] | 19 nM | 0.159 nM | 30000 nM | 41 nM
8 | CN1CCC(Nc2ccc(S(=O)(=O)NC(=O)c3ccc(N4CCN(CC5=C(c6ccc(Cl)cc6)CCCCCC5)CC4)cc3Oc3cccc4[nH]ccc34)cc2[N+](=O)[O-])CC1 [Example 146, 4-(4-{[2-(4-chlorophenyl)cyclooct-1-en-1-yl]methyl}piperazin-1-yl)-2-(1H-indol-4-yloxy)-N-({4-[(1-methylpiperidin-4-yl)amino]-3-nitrophenyl}sulfonyl)benzamide] | > 660 nM | 44.2 nM | 22000 nM | 152 nM
9 | CN1CCC(CNc2ccc(S(=O)(=O)NC(=O)c3ccc(N4CCN(CC5=C(c6ccc(Cl)cc6)CC(C)(C)CC5)CC4)cc3Oc3ccc4[nH]ccc4c3)cc2[N+](=O)[O-])CC1 [Example 104, 4-(4-{[2-(4-chlorophenyl)-4,4-dimethylcyclohex-1-en-1-yl]methyl}piperazin-1-yl)-2-(1H-indol-5-yloxy)-N-[(4-{[(1-methylpiperidin-4-yl)methyl]amino}-3-nitrophenyl)sulfonyl]benzamide] | 49.1 nM | 0.077 nM | > 50000 nM | 21 nM
10 | O=C(NS(=O)(=O)c1ccc(NCC2CCOCC2)c([N+](=O)[O-])c1)c1ccc(N2CCN(Cc3c(OCCN4CCOCC4)cccc3-c3ccc(Cl)cc3)CC2)cc1Oc1cccc2[nH]ccc12 [Example 131, 4-(4-{[4′-chloro-3-(2-morpholin-4-ylethoxy)-1,1′-biphenyl-2-yl]methyl}piperazin-1-yl)-2-(1H-indol-4-yloxy)-N-({3-nitro-4-[(tetrahydro-2H-pyran-4-ylmethyl)amino]phenyl}sulfonyl)benzamide] | 243 nM | 0.106 nM | > 50000 nM | 31 nM
11 | CC1(C)CCC(CN2CCN(c3ccc(C(=O)NS(=O)(=O)c4ccc(NCCCN5CCCC5)c([N+](=O)[O-])c4)c(Oc4cccc5[nH]ccc45)c3)CC2)=C(c2ccc(F)cc2)C1 [Example 73, 4-(4-{[2-(4-fluorophenyl)-4,4-dimethylcyclohex-1-en-1-yl]methyl}piperazin-1-yl)-2-(1H-indol-4-yloxy)-N-({3-nitro-4-[(3-pyrrolidin-1-ylpropyl)amino]phenyl}sulfonyl)benzamide] | 16.9 nM | 1.7 nM | 23200 nM | 140 nM
12 | CN1CCC(Nc2ccc(S(=O)(=O)NC(=O)c3ccc(N4CCN(CC5=C(c6ccc(Cl)cc6)CC(C)(C)C5)CC4)cc3Oc3cccc4[nH]ccc34)cc2[N+](=O)[O-])CC1 [Example 144, 4-(4-{[2-(4-chlorophenyl)-4,4-dimethylcyclopent-1-en-1-yl]methyl}piperazin-1-yl)-2-(1H-indol-4-yloxy)-N-({4-[(1-methylpiperidin-4-yl)amino]-3-nitrophenyl}sulfonyl)benzamide] | > 660 nM | 53.9 nM | 40000 nM | 46 nM
13 | O=C(NS(=O)(=O)c1ccc(NCC2CCOCC2)c([N+](=O)[O-])c1)c1ccc(N2CCN(Cc3ccccc3-c3ccc(Cl)cc3)CC2)cc1Oc1ccc2c(c1)CCN2 [Example 140, 4-{4-[(4′-chloro-1,1′-biphenyl-2-yl)methyl]piperazin-1-yl}-2-(2,3-dihydro-1H-indol-5-yloxy)-N-({3-nitro-4-[(tetrahydro-2H-pyran-4-ylmethyl)amino]phenyl}sulfonyl)benzamide] | > 660 nM | 4.73 nM | > 50000 nM | 2130 nM
14 | CC1(C)CCC(CN2CCN(c3ccc(C(=O)NS(=O)(=O)c4ccc(NCCCN5CCCC5)c([N+](=O)[O-])c4)c(Oc4cccc5[nH]ccc45)c3)CC2)=C(c2ccc(Cl)cc2)C1 [Example 102, 4-(4-{[2-(4-chlorophenyl)-4,4-dimethylcyclohex-1-en-1-yl]methyl}piperazin-1-yl)-2-(1H-indol-4-yloxy)-N-({3-nitro-4-[(3-pyrrolidin-1-ylpropyl)amino]phenyl}sulfonyl)benzamide] | 2.24 nM | 0.035 nM | 20200 nM | 20 nM
15 | CN1CCN(Nc2ccc(S(=O)(=O)NC(=O)c3ccc(N4CCN(CC5=C(c6ccc(Cl)cc6)CC(C)(C)CC5)CC4)cc3Oc3ccc4[nH]ccc4c3)cc2[N+](=O)[O-])CC1 [Example 174, 4-(4-{[2-(4-chlorophenyl)-4,4-dimethylcyclohex-1-en-1-yl]methyl}piperazin-1-yl)-2-(1H-indol-5-yloxy)-N-({4-[(4-methylpiperazin-1-yl)amino]-3-nitrophenyl}sulfonyl)benzamide] | 62.1 nM | 0.105 nM | 19500 nM | 11 nM
16 | O=C(NS(=O)(=O)c1ccc(NCC2CCOCC2)c([N+](=O)[O-])c1)c1ccc(N2CCN(Cc3cc(CN4CCCC4)ccc3-c3ccc(Cl)cc3)CC2)cc1Oc1cccc2[nH]ccc12 [Example 24, 4-(4-{[4′-chloro-4-(pyrrolidin-1-ylmethyl)-1,1′-biphenyl-2-yl]methyl}piperazin-1-yl)-2-(1H-indol-4-yloxy)-N-({3-nitro-4-[(tetrahydro-2H-pyran-4-ylmethyl)amino]phenyl}sulfonyl)benzamide] | > 660 nM | 0.194 nM | > 50000 nM | 55 nM
